How the values were obtained:
[1] = Metabolic stability in dog liver microsome assessed as half-life at 1 uM preincubated for 5 mins followed by NADPH addition and measured upto 60 mins by LC-MS/MS analysis; format: ADME, Canis lupus familiaris; conditions: liver microsomes, time < 65 min
in vitro [2] = conditions: rat, liver microsomes
in vitro [3] = conditions: human, liver microsomes
in vitro [4] = conditions: mouse, liver microsomes
[5] = Oral bioavailability in rat at 3 mg/kg; format: ADME, organism-based; conditions: in vivo
[6] = Volume of distribution at steady state in rat at 3 mg/kg, po or 1 mg/kg, iv; format: ADME, organism-based; conditions: in vivo
[7] = Metabolic stability in monkey liver microsome assessed as half-life at 1 uM preincubated for 5 mins followed by NADPH addition and measured upto 60 mins by LC-MS/MS analysis; format: ADME, Macaca mulatta; conditions: rhesus monkey, liver microsomes, time < 65 min
in vitro [8] = conditions: human, Caco-2
[9] = AUC in rat at 3 mg/kg, po or 1 mg/kg, iv; format: ADME, organism-based; conditions: in vivo
[10] = Half-life in rat at 3 mg/kg, po or 1 mg/kg, iv; format: ADME, organism-based; conditions: in vivo
in vitro [11] = conditions: human, Caco-2; remark: listed apart in the source
[12] = Cmax in rat at 3 mg/kg, po or 1 mg/kg, iv; format: ADME, organism-based; conditions: in vivo

half-life at 1 µM [1] [h] | half-life at 1 h, 1 µM (in vitro [2]) [h] | half-life at 1 h, 1 µM (in vitro [3]) [h] | half-life at 1 h, 1 µM (in vitro [4]) [h] | bioavailability [5] [%] | Vdss [6] [L/kg] | half-life at 1 µM [7] [h] | Papp B→A at 2 h, 10 µM (in vitro [8]) [×10⁻⁶ cm/s] | AUC [9] [ng·h/mL] | half-life [10] [h] | Papp A→B at 2 h, 10 µM (in vitro [11]) [×10⁻⁶ cm/s] | Cmax [12] [ng/mL] | SMILES
> 1 | > 1 | > 1 | > 1 | 70 | 5 | 0.9 |  |  |  |  |  | CN1Cc2cc3c(cc2C1)C(=O)N(C1CCC(=O)NC1=O)C3=O (centres undefined)
> 1 | > 1 | > 1 | > 1 | 60 | 2.9 | > 1 | 6.8 | 1500 | 2.2 | 2.55 | 276 | CN1Cc2cc3c(cc2C1)C(=O)N(C1CCC(=O)NC1=O)C3 (centres undefined)

Source: ChEMBL document CHEMBL5576143, “Discovery of CW-3308 as a Potent, Selective, and Orally Efficacious PROTAC Degrader of BRD9” (J Med Chem, 2024)
